Data from PubChem BioAssay AID248 (DTP/NCI, 2004).
Where “and” joins values, the source holds several entries; their conditions need not be identical. Equal entries are not always repeated. Inconclusive results and toxic doses are left out. Cut-off read from the data, not from the text of the source: active = T/C of 150% or more; inactive = T/C below 125%.

Test system: L1210 leukemia ip in BDF1 mice, survival T/C
Experiment: NCI In Vivo Anticancer Drug Screen. Data for tumor model L1210 Leukemia (intraperitoneal) in B6D2F1 (BDF1) mice
Details: endpoint: mean survival time, higher = longer survival
Summary of the method: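 Each compound was tested against a transplantable tumor grown in mice. The endpoint was survival, with treated animals benchmarked against vehicle controls as a simple ratio.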

[1] = dose: 100.0 mg/kg/injection, schedule: Q01DX009 (ip), vehicle: Klucel (hydroxypropylcellulose) (HPC)
[2] = dose: 100.0 mg/kg/injection, schedule: Q04DX003 (ip), vehicle: Klucel (hydroxypropylcellulose) (HPC)
[3] = dose: 200.0 mg/kg/injection, schedule: Q01DX009 (ip), vehicle: Klucel (hydroxypropylcellulose) (HPC)
[4] = dose: 200.0 mg/kg/injection, schedule: Q04DX003 (ip), vehicle: Klucel (hydroxypropylcellulose) (HPC)
[5] = dose: 400.0 mg/kg/injection, schedule: Q01DX009 (ip), vehicle: Klucel (hydroxypropylcellulose) (HPC)
[6] = dose: 400.0 mg/kg/injection, schedule: Q04DX003 (ip), vehicle: Klucel (hydroxypropylcellulose) (HPC)
[7] = dose: 100.0 mg/kg/injection, schedule: Q04DX002 (ip), vehicle: saline with Tween-80
[8] = dose: 200.0 mg/kg/injection, schedule: Q04DX002 (ip), vehicle: saline with Tween-80
[9] = dose: 100.0 mg/kg/injection, schedule: Q01DX009 (ip), vehicle: saline with Tween-80
[10] = dose: 200.0 mg/kg/injection, schedule: Q01DX009 (ip), vehicle: saline with Tween-80

Measured: T/C

O=C(O)/C(=C\CCCCC/C=C(\CCO)C(=O)O)CCO
inactive: [1] 100 % of control | [2] 98 % of control | [3] 96 % of control | [4] 100 % of control | [5] 99 % of control | [6] 91 % of control

COc1ccc(CCC(=O)O)cc1
inactive: dose: 50.0 mg/kg/injection, schedule: Q04DX003 (ip), vehicle: gum acacia 98 % of control | dose: 100.0 mg/kg/injection, schedule: Q04DX003 (ip), vehicle: gum acacia 98 % of control | dose: 200.0 mg/kg/injection, schedule: Q04DX003 (ip), vehicle: gum acacia 95 % of control

CCCc1nc2ccccc2c(=O)n1/N=C/c1ccc(Cl)cc1
inactive: [1] 98 % of control | [3] 88 % of control | [5] 93 % of control

NC(c1ccccc1)C1C(c2ccccc2)N1C1CCCCC1 (configuration not stated)
inactive: [2] 95 % of control | [4] 86 % of control | [6] 98 % of control

CC(C)N(CCC#N)CN1C(=O)c2ccccc2C1=O
inactive: [1] 94 % of control | [3] 91 % of control

CCOC(=O)COc1c(C)cccc1Cl
inactive: [7] 111 % of control | [8] 114 % of control

O=C(NC(=O)c1ccc(Cl)c(Cl)c1)Nc1ccccc1C(F)(F)F
inactive: [2] 102 % of control | [4] 98 % of control | [6] 98 % of control

O=C1C2CCCCC1C(N1CCCC1)CC2 (configuration not stated)
inactive: dose: 100.0 mg/kg/injection, schedule: Q01DX009 (sc), vehicle: olive oil, sesame oil, peanut oil 98 % of control | dose: 100.0 mg/kg/injection, schedule: Q04DX003 (sc), vehicle: olive oil, sesame oil, peanut oil 96 % of control | dose: 200.0 mg/kg/injection, schedule: Q01DX009 (sc), vehicle: olive oil, sesame oil, peanut oil 104 % of control | dose: 200.0 mg/kg/injection, schedule: Q04DX003 (sc), vehicle: olive oil, sesame oil, peanut oil 100 % of control | dose: 400.0 mg/kg/injection, schedule: Q04DX003 (sc), vehicle: olive oil, sesame oil, peanut oil 111 % of control

Cc1cc(C)c(NC(=O)/C=C/C(=O)O)c(C)c1
inactive: [7] 91 % of control and 92 % of control | [8] 94 % of control and 99 % of control | dose: 800.0 mg/kg/injection, schedule: Q04DX002 (ip), vehicle: saline with Tween-80 103 % of control

COc1ccc(/C=C/C(=O)c2ccccc2)cc1
inactive: [9] 93 % of control and 101 % of control | dose: 100.0 mg/kg/injection, schedule: Q04DX003 (ip), vehicle: saline with Tween-80 93 % of control | [10] 95 % of control and 96 % of control | dose: 200.0 mg/kg/injection, schedule: Q04DX003 (ip), vehicle: saline with Tween-80 96 % of control | dose: 400.0 mg/kg/injection, schedule: Q01DX009 (ip), vehicle: saline with Tween-80 111 % of control and 91 % of control | dose: 400.0 mg/kg/injection, schedule: Q04DX003 (ip), vehicle: saline with Tween-80 104 % of control

CCOC(=O)C(=O)CC1CCCCC1
inactive: dose: 50.0 mg/kg/injection, schedule: Q01DX009 (ip), vehicle: saline with Tween-80 92 % of control | [9] 100 % of control | [10] 100 % of control

CC(/C=N/N(C)C(=N)N)=N\N(C)C(=N)N
inactive: dose: 15.0 mg/kg/injection, schedule: Q01DX Z (ip), vehicle: saline 88 % of control | dose: 30.0 mg/kg/injection, schedule: Q01DX Z (ip), vehicle: saline 103 % of control | dose: 60.0 mg/kg/injection, schedule: Q01DX Z (ip), vehicle: saline 98 % of control | dose: 120.0 mg/kg/injection, schedule: Q01DX Z (ip), vehicle: saline 102 % of control | dose: 120.0 mg/kg/injection, schedule: Q01DX Z (oral), vehicle: saline 103 % of control | dose: 240.0 mg/kg/injection, schedule: Q01DX Z (oral), vehicle: saline 97 % of control | dose: 480.0 mg/kg/injection, schedule: Q01DX Z (oral), vehicle: saline 106 % of control | dose: 960.0 mg/kg/injection, schedule: Q01DX Z (oral), vehicle: saline 113 % of control
